Source: US6492180B2, “Non-invasive transdermal detection of analytes” (priority 1998, dated 2002)

Tests used:
[1] = In vitro 3H-cocaine transport through swine skin, diffusion cells; assay type: in vitro ADME; conditions: donor 20 μCi/ml, receptor 50% NMP:H2O
Method: The receptor solution (50% NMP:H2O) was loaded in the lower chamber. Samples from the lower chamber (100 μl) were taken every hour and counted.

[2] = tested on: rats; assay: In vivo extraction of lead through the skin of lead-fed rats with NMP hydrogel; blood lead; parameters: species or system rat; conditions: Sprague Dawley rats, 750-1,000 ppm lead acetate in water supply, tail vein blood, for several weeks
Method: Determinations of blood lead (Pb) concentrations were conducted by obtaining a blood sample from the tail vein of the animals and analyzing them using an ESA brand LeadCare® Analyzer (Chelmsford, Mass.).
At that time, a clear hydrogel formulation containing 1 gram of the copolymer Pluronic® F127 (BASP), and 2.0 mL of deionized water and 2.0 mL of N-methyl pyrrolidone (Pharmasolve®, ISP, Wayne, N.J.) was prepared. Approximately 1.2 grams of hydrogel was applied to a 2.4 cm diameter polypropylene plastic disk. The disks were attached to a jacket which was affixed to the backs of the rats. The disks were removed after 1 hour.

[3] = tested on: rats; assay: Detection of 14C-caffeine administered to rats: tissue radioactivity and hydrogel extraction; assay type: in vivo, rat; conditions: 2.5 hours
Method: Rats were shaven and fasted for 24 hours prior to caffeine administration by intraperitoneal injection of ^14C labeled caffeine to the 600 gram rats. Each animal received approximately 16.7 μCi of ^14C caffeine via intraperitoneal injection of 0.5 mL of ethanol and water.
A 50% NMP:50% water-Pluronic® F127 hydrogel was applied to 2.4 cm diameter plastic disks. The disks were attached to a jacket which was affixed to the backs of the rats. The disks were removed after 2.5 hours. The gel was removed and counted. The rats were sacrificed and blood and tissue were removed for analysis from each animal. The tissue samples were placed in liquid scintillation vials with 1.5 mL of Soluene® (Packard Instruments, Downers Grove, Ill.) in order to dissolve the tissues for valid liquid scintillation counting.

[4] = rat, about 16.7 μCi 14C caffeine i.p.

COC(=O)[C@H]1[C@@H](OC(=O)c2ccccc2)C[C@@H]2CC[C@H]1N2C [^3H-cocaine, cocaine]
flux through pig skin in vitro [1]: 0.00317 μg/cm^2/hr

CC(=O)[O-].CC(=O)[O-].[Pb+2] [lead acetate]
blood lead levels [2]: 50 to 60 µg/dL

Cn1c(=O)c2c(ncn2C)n(C)c1=O [^14C caffeine, caffeine]
Radioactivity (mean dpm ± SD), NMP-Pluronic F127 Hydrogel ([3]; extracted through rat skin into 50% NMP:50% water-Pluronic F127 hydrogel): 58.82 dpm/cm^2/hr
Radioactivity (mean dpm ± SD), Blood [3, 4]: 87.24 dpm/μL
Radioactivity (mean dpm ± SD), Muscle [3, 4]: 64.30 ± 8.73 dpm/mg
Radioactivity (mean dpm ± SD), Skin [3, 4]: 52.15 ± 0.07 dpm/mg
